Data as given in US20090036488A1, “RECURRENCE PREVENTIVE THERAPEUTIC AGENT FOR PSYCHOSTIMULANT-INDUCED PSYCHOSIS AND SCHIZOPHRENIA” (Tokyo Medical and Dental University, priority 2005, published 2009).

What was measured:
[1] = system: MAP reverse tolerance model; assay: Test to confirm effects of administration with fluoxetine or paroxetine in the MAP reverse tolerance model; format: in vivo, mice
Protocol: Regarding formation of reverse tolerance, 1 mg/kg/day MAP was administered to eight-week-old male ddy mice for ten days as a pretreatment in a similar way to the abovementioned method. After a 11-day washout period, 10 mg/kg/day fluoxetine was then administered. Fluoxetine was prepared by dissolving in saline and administered by subcutaneous injection. In addition, after 9 to 11-day washout period, 0.24 mg/kg MAP was administered, the locomotor hyperactivity of the mice was measured and evaluated one hour later.
Regarding formation of reverse tolerance, MAP 1 mg/kg/day […] was administered to eight-week-old male ddy mice for ten days as a pretreatment in a similar way to the abovementioned method. After an 11-day washout period, 8 mg/kg/day paroxetine was then administered. Paroxetine was prepared by dissolving in saline and administered by subcutaneous injection. In addition, after 9 to 11-day washout period, 0.24 mg/kg MAP was administered, and the locomotor hyperactivity of the mice was measured and evaluated one hour later.

[2] = system: male ddy mice; assay: Test for formation/maintenance of reverse tolerance; format: in vivo
Protocol: Methamphetamine (hereinafter, may be also referred to as “MAP”) which is a psychostimulant was administered to an animal, and then formation/maintenance of reverse tolerance was verified. In this test, eight-week-old male ddy mice were used. […] First, mice were divided into two groups, and then 1 mg/kg/day MAP and saline were respectively administered to each group for ten days as pretreatment. The agent was prepared by dissolving in saline and administered by subcutaneous injection. Hereinafter, the group to which MAP was administered is called “MAP administrated group”, and the group to which saline was administered is called “SAL administrated group”. MAP of 1 mg/kg used here corresponds an amount to result in increase in locomotor hyperactivity when it is administered to mice. In addition, a first administration of MAP was conducted after a 10-day washout period in order to confirm if this phenomenon was maintained. The dosage, 0.24 mg/kg, was less than that of the pretreatment, which is reportedly a quantity not causing abnormal behavior to appear in normal mice received the administration. Then, following a 29-day washout period, a second administration was conducted. Upon the administration on the day 10 and the day 29, MAP was also administered to the SAL administrated group in the same amount as administered to the MAP administrated group.
During the pretreatment, activity quantity in an hour was measured after MAP or saline administration on Days 1, 3, 7, and 10. […] In the case of a typical drug administration, tolerance is formed to gradually decrease influences of the administered drug.
In addition, comparing the MAP administrated group with the SAL administrated group, in both administrations on day 10 and day 29, it was clear that the activity quantity of the MAP administrated group was higher, so that it was confirmed that influences of the drug were maintained even after a longer than one-month washout period.

## CNCCC(Oc1ccc(C(F)(F)F)cc1)c1ccccc1 (stereo not drawn) [FLX, fluoxetine]
[1]; MAP 1 mg/kg/day for 10 days, 11-day washout, fluoxetine 10 mg/kg/day s.c., 9 to 11-day washout, 0.24 mg/kg MAP, measured one hour later
  locomotor hyperactivity vs group without FLX in the treatment phase (Example 1 vs Comparative Example 7): locomotor hyperactivity decreased
[1]; fluoxetine 10 mg/kg/day s.c. after MAP pretreatment, 0.24 mg/kg MAP challenge
  reverse tolerance, vs group in which reverse tolerance was not formed (Example 1 vs Comparative Example 3): reverse tolerance disappeared
[1]; saline pretreatment, reverse tolerance not formed, fluoxetine 10 mg/kg/day s.c.
  effect of FLX itself on activity quantity (Comparative Example 1 vs 2, 3 vs 4): did not decrease the activity quantity

## CN[C@@H](C)Cc1ccccc1 [MAP, Methamphetamine]
[2]; 0.24 mg/kg MAP on day 10 and day 29 after washout
  activity quantity after MAP re-administration, MAP administrated group vs SAL administrated group: higher
[2]; MAP 1 mg/kg/day s.c. for ten days
  formation of reverse tolerance: reverse tolerance was formed
[2]; MAP 1 mg/kg/day s.c. for ten days, measured on Days 1, 3, 7 and 10
  activity quantity in an hour (locomotor hyperactivities per hour) during pretreatment: increased in a time dependent manner

## Fc1ccc([C@@H]2CCNC[C@H]2COc2ccc3c(c2)OCO3)cc1 [PLX, paroxetine]
[1]; MAP 1 mg/kg/day for 10 days, 11-day washout, paroxetine 8 mg/kg/day s.c., 9 to 11-day washout, 0.24 mg/kg MAP, measured one hour later
  locomotor hyperactivity vs group without PLX in the treatment phase (Example 2 vs Comparative Example 14): locomotor hyperactivity decreased
[1]; paroxetine 8 mg/kg/day s.c. after MAP pretreatment, 0.24 mg/kg MAP challenge
  reverse tolerance, vs group in which reverse tolerance was not formed (Example 2 vs Comparative Example 10): reverse tolerance disappeared
[1]; saline pretreatment, reverse tolerance not formed, paroxetine 8 mg/kg/day s.c.
  effect of PLX itself on activity quantity (Comparative Example 8 vs 9, 10 vs 11): did not decrease activity quantity
